The results in this text go back to patent US20230105108A1, “COMPOUNDS FOR THE TREATMENT OF BACTERIAL INFECTIONS AND POTENTIATION OF ANTIBIOTICS” (GEORGIA STATE UNIVERSITY RESEARCH FOUNDATION, INC., priority 2019, published 2023).

What all share (assay type): cell-based
Assay [1] is described as follows: IC50 of Table 7 (cell line not stated).
A further assay has as its system B. subtilis. As to the kind of experiment: MIC determination and sensitization fold on B. subtilis. The settings on record: for Sensitization fold: erythromycin; for MIC: Bacillus subtilis.
The next assay deals with E. coli (ATCC 25922). As to the kind of experiment: Antibiotic uptake in the presence and absence of MD-100 (HPLC). The settings on record: E. coli lysate, presence vs absence of 25 μg/ml MD-100. As for the experimental part:
Direct comparison of the antibiotic uptake in the presence and absence of MD-100 through HPLC study. E. coli (ATCC 25922) was cultured in Mueller Hinton II cation-adjusted broth for overnight at 37° C. to reach a density of OD600 of 0.8 to 1.0. To 20 ml fresh Mueller Hinton II cation-adjusted broth was added 50 μl E. coli stock, 200 μl 5 mg/ml O—CH3 novobiocin and 100 μl 10 mM MD-100. In the other group, the same amount of E. coli stock, O—CH3 novobiocin was used in the absence of MD-100. Then E. coli was incubated for 20 h at 37° C. with continuous shaking of 200 rpm. After, the E. coli suspension was centrifuged at 3000 g for 10 min and the culture media was removed to obtain bacteria pallet. The pallets from the two groups was re-suspended in PBS to reach the same OD600 of 2.0. To this E. coli suspension was spiked with 10 μM internal standard. 1 ml E. coli from each group in PBS was lysed by sonication on ice for 15 min, followed by adding 2 ml MeOH, the mixture was then centrifuged at 3000 g for 5 min and the supernatant was analyzed by HPLC. 20 μl of each sample was injected into Shimadzu Prominence UFLC (column: Waters C18, […], 4.6×100 mm, injection loop volume: 20 μl). The mobile phase was acetonitrile (ACN)/H2O (with 0.05% trifluoroacetic acid in the aqueous) with ratios defined as: 20%˜55% ACN, 0˜10 min; 55%˜65% ACN, 10˜20 min; 65%˜20% ACN, 20˜25 min. […]

Assay [2] has as its system A. baumannii (ATCC 17978). As to the kind of experiment: MIC, sensitization fold and FIC index on A. baumannii. To be noted: Acinetobacter baumannii, ATCC17978; A. baumannii; read-out: MIC of MD-124.
The subject of a further assay is E. coli. As to the kind of experiment: Bacterial resistance frequency study. As for the experimental part: Bacterial resistance frequency study: E. coli was grown overnight in Mueller Hinton II cation-adjusted broth medium and concentrated to ˜5×10^9 CFUs/ml in Mueller Hinton II cation-adjusted broth. […] Then the plates were incubated at 37° C. for 48 h. Then the colonies formed on the plate were recorded and resistant frequency was calculated.

Where a name gives a salt, the structure may show the parent alone. Read-outs that look alike come from different tables or passages of the source.

In assay [1], `Cc1cc(COc2ccc(C(=N)N)cc2)cc(COc2ccc(C(=N)N)cc2)c1` [MD-100, 4,4′-(((5-methyl-1,3-phenylene)bis(methylene))bis(oxy))dibenzimidamide dihydrochloride] showed a half-inhibitory concentration (IC50) of 100 µM. In addition, in the assay on B. subtilis (B. subtilis, 5.5 μg/ml alone, no antibiotic), the “growth density compared with the control (no treatment) group” value came to 80%. The Sensitization fold is given as 8 fold at 6 μM in the assay with B. subtilis (B. subtilis, compound at 6 μM) and 32-fold at 12 μM; in the assay on B. subtilis (B. subtilis, compound at 12 μM). The minimal inhibitory concentration (MIC) was found to be 50 µM with B. subtilis (24 h, B. subtilis, compound alone, read-out: MIC) and 50 µg/mL with B. subtilis (wild type B. subtilis, read-out: MIC of DB2560). For the same compound, in the assay with E. coli (ATCC 25922), the “relative intracellular concentration of O-methyl novobiocin” value is listed as “greatly increased”.

For `N=C(N)c1ccc(COc2cc(OCc3ccc(C(=N)N)cc3)cc(C(F)(F)F)c2)cc1` [MD-124, 4,4′-(((5-(trifluoromethyl)-1,3-phenylene)bis(oxy))bis(methylene)) dibenzimidamide dihydrochloride], in assay [2], the MIC worked out at 25 µg/mL. For the same compound, in the assay with E. coli (10 μg/ml MD-124, 2.7×10^10 CFUs tested), the “resistant frequency towards MD-124” value is on record as < 3.7×10^−11. In addition, in the assay on E. coli (10 μg/ml MD-124, antibiotic 2 to 7-fold of MIC), the “lower resistance frequency towards MD-124/antibiotic combination than the antibiotic itself” value is reported as 2 to 3 orders of magnitude.
